Measured values reported in patent publication US7612084B2, “Amine derivatives for the treatment of asthma and COPD” (Pfizer Inc, priority 2006, dated 2009).

What was measured:
[1] = target: human adrenergic B2 receptor (Homo sapiens, UniProt P07550); test: Whole cell luciferase reporter assay in CHO cells expressing the hB2 receptor (agonist potency); type: cell-based; conditions: 4 h incubation, read-out: EC50 - beta2
Description: Functional Assessment of Agonist Potency and Efficacy Using a Whole Cell Luciferase Reporter Assay in CHO Cells Expressing the hB2 Receptor.
CHO (Chinese Hamster Ovary) cells recombinantly expressing the human adrenergic B2 receptor and transfected with a luciferase enzyme reporter gene were maintained in growth media composed of F12:DMEM (Sigma D6421) containing 10% Foetal Bovine Serum (FBS: Sigma F03921) 10 μg/ml puromycin (Sigma N277698), 0.5 mg/ml Geneticin G418 (Sigma G7034) and 2 mM L-glutamine (Sigma G7513). The cells were kept in sterile conditions at 37° C., in an atmosphere containing 5% CO2.
hB2 Luciferase Assay Protocol
Cells were harvested for assay when they reached 80-90% confluency using enzyme free cell Dissociation Solution (Life technologies 13151-014) incubated with the cells for 5 min at 37° C. in an atmosphere containing 5% CO2. Detached cells were collected in warmed growth media (composition described above), and re-suspended in assay media (F12:DMEM (Sigma D6421) containing 1% Foetal Bovine Serum (FBS: Sigma F03921), 10 μg/ml puromycin (Sigma N277698), 0.5 mg/ml Geneticin G418 (Sigma G7034) and 2 mM L-glutamine (Sigma G7513))to give a viable cell concentration of 1×10^6 cells/ml. 10 ul of this suspension was added to each well of a tissue culture treated low volume 384 well plate (Greiner788073) and the plate incubated in an atmosphere containing 5% CO2 at 37° C. for 2 h. Concentration ranges of test compounds were prepared in phosphate Buffered Saline containing 0.05% pluronic-F127 (Sigma P2443) and 2.5% DMSO. 2 μl of each test concentration were added to the appropriate 384 plate well and returned to the incubator for a further 4 h. At the end of the incubation period 4 μl of Steady-Glo reagent (Steady-Glo Luciferase assay system (Promega E2520) was added to each well and the plate read immediately in a Leadseeker Plate reader (Amersham Bioscience) using a 660 nm filter. Concentration effect curves were plotted and EC50 values generated using a 4-parameter sigmoid fit using an in-house data analysis programme. Isoprenaline was run in every assay as a reference standard.

[2] = target: human muscarinic M3 receptor (Homo sapiens, UniProt P20309); test: Whole cell β-lactamase reporter assay in CHO cells expressing the hM3 receptor (antagonist activity); type: cell-based; conditions: 80 nM carbamyl choline, IC50 converted to Ki by Cheng-Prusoff
Chain of human muscarinic M3 receptor (P20309 whole entry): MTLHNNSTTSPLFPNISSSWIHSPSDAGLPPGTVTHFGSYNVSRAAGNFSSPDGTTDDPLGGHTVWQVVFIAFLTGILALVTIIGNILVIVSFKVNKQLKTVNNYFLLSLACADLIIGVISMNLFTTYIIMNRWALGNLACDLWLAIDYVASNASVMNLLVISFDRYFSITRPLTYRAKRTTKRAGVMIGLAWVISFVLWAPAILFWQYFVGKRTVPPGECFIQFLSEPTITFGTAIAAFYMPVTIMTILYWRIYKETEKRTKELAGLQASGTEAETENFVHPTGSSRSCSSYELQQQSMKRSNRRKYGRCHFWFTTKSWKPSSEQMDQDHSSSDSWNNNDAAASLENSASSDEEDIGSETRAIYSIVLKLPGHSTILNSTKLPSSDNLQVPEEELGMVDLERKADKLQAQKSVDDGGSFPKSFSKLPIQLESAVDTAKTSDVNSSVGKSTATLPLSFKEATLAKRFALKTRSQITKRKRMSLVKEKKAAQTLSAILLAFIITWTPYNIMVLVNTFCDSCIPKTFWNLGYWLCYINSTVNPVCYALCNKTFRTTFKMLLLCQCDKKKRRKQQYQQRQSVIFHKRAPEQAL
Description: Functional Assessment of Antagonist Activity Using a Whole Cell β-Lactamase Reporter Assay in CHO Cells Expressing the hM3 Receptor.
CHO (Chinese Hamster Ovary) cells recombinantly expressing the human muscarinic M3 receptor were transfected with the NFAT_β-Lac_Zeo plasmid. Cells were grown in DMEM with Glutamax-1, supplemented with 25 mM HEPES(Life Technologies 32430-027), containing 10% FCS (Foetal Calf Serum; Sigma F-7524), […] Sodium pyruvate (Sigma S-8636), NEAA (non-Essential Amino Acids; Invitrogen 11140-035) and […] Zeocin (Invitrogen R250-01).
Cells were harvested for assay when they reached 80-90% confluency using enzyme free cell Dissociation Solution (Life technologies 13151-014) incubated with the cells for 5 min at 37° C. in an atmosphere containing 5% CO2. Detached cells were collected in warmed growth media and centrifuged at 200 rpm for 10 min, washed in PBS (Phosphate Buffered Saline; Life Technologies 14190-094) and centrifuged again as just described. The cells were re-suspended at 2×10^5 cells/ml in growth medium (composition as described above). 20 μl of this cell suspension was added to each well of a 384 well black clear bottomed plate (Greiner Bio One 781091-PFI). The assay buffer used was PBS supplemented with 0.05% Pluronic F-127 (Sigma 9003-11-6) and 2.5% DMSO. Muscarinic M3 receptor signalling was stimulated using 80 nM carbamyl choline (Aldrich N240-9) incubated with the cells for 4 h at 37° C./5% CO2 and monitored at the end of the incubation period using a Tecan SpectraFluor+plate reader (λ−excitation 405 nm, emission 450 nm and 503 nm). Compounds under test were added to the assay at the beginning of the 4 h incubation period and compound activity measured as the concentration dependent inhibition of the carbamyl choline induced signal. Inhibition curves were plotted and IC50 values generated using a 4-parameter sigmoid fit and converted to Ki values using the Cheng-Prusoff correction and the KD value for carbamyl choline in the assay.

Chain of human adrenergic B2 receptor (P07550 whole entry): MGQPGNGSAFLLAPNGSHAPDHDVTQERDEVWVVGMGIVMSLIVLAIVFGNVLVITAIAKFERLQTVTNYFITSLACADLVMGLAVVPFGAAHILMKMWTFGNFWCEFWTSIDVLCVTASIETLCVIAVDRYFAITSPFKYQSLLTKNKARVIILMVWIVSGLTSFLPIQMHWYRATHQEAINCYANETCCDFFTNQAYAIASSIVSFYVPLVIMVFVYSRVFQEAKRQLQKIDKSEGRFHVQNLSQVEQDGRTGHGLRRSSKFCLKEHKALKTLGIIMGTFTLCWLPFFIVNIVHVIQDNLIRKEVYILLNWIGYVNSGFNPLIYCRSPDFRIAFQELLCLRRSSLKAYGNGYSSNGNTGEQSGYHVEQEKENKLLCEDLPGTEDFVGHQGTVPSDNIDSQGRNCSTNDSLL

SMILES	EC50 [1]	Ki [2]
CC(C)N(CC[C@H](c1ccccc1)c1cc(CCCOc2ccc(CCNC[C@H](O)c3ccc(O)c(NS(C)(=O)=O)c3)cc2)ccc1O)C(C)C [Example 2, N-{5-[(1R)-2-({2-[4-(3-{3-[(1R)-3-(diisopropylamino)-1-phenylpropyl]-4-hydroxyphenyl}propoxy)phenyl]ethyl}amino)-1-hydroxyethyl]-2-hydroxyphenyl}methanesulfonamide]	0.32 nM	1.1 nM
CC(C)N(CC[C@H](c1ccccc1)c1cc(CCCCOc2ccc(CCNC[C@H](O)c3ccc(O)c(NC=O)c3)cc2)ccc1O)C(C)C [Example 7, N-{5-[(1R)-2-({2-[4-(4-{3-[(1R)-3-(diisopropylamino)-1-phenylpropyl]-4-hydroxyphenyl}butoxy)phenyl]ethyl}amino)-1-hydroxyethyl]-2-hydroxyphenyl}formamide]	0.049 nM	2.1 nM
